From patent US11634425B2, “Pharmaceutical compounds” (priority 2019, dated 2023)
Read-outs that look alike come from different tables or passages of the source.

Experiments:
RSV A2 = assay: RSV plaque reduction assay; format: cell-based, respiratory syncytial virus (RSV); settings: human respiratory syncytial virus, HepG2, Hep-G2 cells, mean of at least two experiments
Procedure, shortened: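 EC50 is the 50% reduction in immunostained plaque count versus virus-control wells, interpolated from variable-slope 4-parameter fits and averaged over at least two runs. Hep-G2 cells were infected with 100 PFU/well RSV A2 premixed with compound, with the inoculum removed after 2 h. Incubation continued at 37 °C for 2 days under a CMC overlay with compound.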

Cell cytotoxicity (CC50) = format: cell-based; settings: human; mean of at least two experiments
Procedure, shortened: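 Values are means of ≥2 independent runs, rounded to whole units, from 4-parameter variable-slope curve fits. Toxicity measured in Hep-G2 cells run alongside RSV plaque-reduction assays.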

in vitro = in vitro ADME; settings: microsomes, pH 7.4, 1 μM compound, 0.5 mg/mL protein, read-out: Liver Microsomal Stability t1/2
Method: Compounds were subjected to the following assays to investigate liver microsomal stability and hepatocyte stability.
Microsomal Incubation: Experimental Procedure
Pooled liver microsomes were purchased from a reputable commercial supplier and stored at −80° C. prior to use. Microsomes (final protein concentration 0.5 mg/mL), 0.1 M phosphate buffer pH 7.4 and test compound (final substrate concentration 1 μM; final DMSO concentration 0.25%) were pre-incubated at 37° C. prior to the addition of NADPH (final concentration 1 mM) to initiate the reaction. The final incubation volume was 50 μL. A control incubation was included for each compound tested where 0.1 M phosphate buffer pH 7.4 was added instead of NADPH (minus NADPH). Two control compounds were included with each species. All incubations were performed singularly for each test compound. Each compound was incubated for 0, 5, 15, 30 and 45 min. The control (minus NADPH) was incubated for 45 min only. The reactions were stopped by transferring incubate into acetonitrile at the appropriate time points, in a 1:3 ratio. The termination plates are centrifuged at 3,000 rpm for 20 min at 4° C. to precipitate the protein. Following protein precipitation, the sample supernatants were combined in cassettes of up to 4 compounds, internal standard added, and samples analysed by LC-MS/MS. From a plot of ln peak area ratio (compound peak area/internal standard peak area) against time, the gradient of the line was determined. Subsequently, half-life (t1/2) and intrinsic clearance (CLint) were calculated.

Row | SMILES | EC50 (RSV A2) [nM] | CC50 (Cell cytotoxicity (CC50)) [nM] | half-life at 1 μM (in vitro; dog) [h] | half-life at 1 μM (in vitro; human) [h] | half-life at 1 μM (in vitro; rat) [h]
1 | CN1C[C@@H]2C[C@H]1CN2c1ccc2nc(-c3ccccc3)c(C(=O)N[C@H]3N=C(c4ccccc4)c4cccc(F)c4NC3=O)n2n1 [Example 80, N-[(3S)-9-fluoro-2-oxo-5-phenyl-1,3-dihydro-1,4-benzodiazepin-3-yl]-6-[(1S,4S)-5-methyl-2,5-diazabicyclo[2.2.1]heptan-2-yl]-2-phenylimidazo[1,2-b]pyridazine-3-carboxamide] | 51 | 13800 | 2.98 | 2.4 | 1.9
2 | CN1C[C@H]2C[C@@H]1CN2c1ccc2nc(-c3ccccc3)c(C(=O)N[C@H]3N=C(c4ccccc4)c4cccc(F)c4NC3=O)n2n1 [Example 81, N-[(3S)-9-fluoro-2-oxo-5-phenyl-1,3-dihydro-1,4-benzodiazepin-3-yl]-6-[(1R,4R)-5-methyl-2,5-diazabicyclo[2.2.1]heptan-2-yl]-2-phenylimidazo[1,2-b]pyridazine-3-carboxamide] | 114 | 8150 | 1.88 | 0.488 | 1.49
3 | Cc1ccc(-c2nn3cccnc3c2C(=O)N[C@H]2N=C(c3ccccc3)c3ccccc3NC2=O)c(F)n1 [Example 85, 2-(2-Fluoro-6-methylpyridin-3-yl)-N-[(3S)-2-oxo-5-phenyl-1,3-dihydro-1,4-benzodiazepin-3-yl]pyrazolo[1,5-a]pyrimidine-3-carboxamide] | 57 | > 25000 | 1.75 | > 2.33 | 3.3
4 | O=C(N[C@H]1N=C(c2ccccc2)c2ccccc2NC1=O)c1c(-c2ccccc2)nc2cccnn12 [Example 87, N-[(3S)-2-oxo-5-phenyl-1,3-dihydro-1,4-benzodiazepin-3-yl]-2-phenylimidazo[1,2-b]pyridazine-3-carboxamide] | 53 | > 25000 | 1.12 | 68.8 | 1.43
5 | O=C(N[C@H]1N=C(c2ccccc2)c2ccccc2NC1=O)c1c(-c2ccc(F)cc2F)nc2cccnn12 [Example 88, 2-(2,4-Difluorophenyl)-N-[(3S)-2-oxo-5-phenyl-1,3-dihydro-1,4-benzodiazepin-3-yl]imidazo[1,2-b]pyridazine-3-carboxamide] | 20 | > 25000 | 1.27 | > 2.33 | 3.37
6 | O=C(N[C@H]1N=C(c2ccccc2)c2cccc(F)c2NC1=O)c1c(-c2ccc(F)cc2F)nc2cccnn12 [Example 89, 2-(2,4-Difluorophenyl)-N-[(3S)-9-fluoro-2-oxo-5-phenyl-1,3-dihydro-1,4-benzodiazepin-3-yl]imidazo[1,2-b]pyridazine-3-carboxamide] | 19 | > 25000 | 18 | 12.3 | 3.1
7 | Cc1ccc2nc(-c3ccc(F)cc3F)c(C(=O)N[C@H]3N=C(c4ccccc4)c4cccc(F)c4NC3=O)n2n1 [Example 91, 2-(2,4-Difluorophenyl)-N-[(3S)-9-fluoro-2-oxo-5-phenyl-1,3-dihydro-1,4-benzodiazepin-3-yl]-6-methylimidazo[1,2-b]pyridazine-3-carboxamide] | 17 | > 25000 | 4.47 | 1.68 | 0.61
8 | CN1CCN(c2ccc3nc(-c4ccccc4F)c(C(=O)N[C@H]4N=C(c5ccccc5)c5cccc(F)c5NC4=O)n3n2)CC1 [Example 95, N-[(3S)-9-fluoro-2-oxo-5-phenyl-1,3-dihydro-1,4-benzodiazepin-3-yl]-2-(2-fluorophenyl)-6-(4-methylpiperazin-1-yl)imidazo[1,2-b]pyridazine-3-carboxamide] | 93 | > 21100 | 1.11 | 0.948 | 0.595
9 | Cc1ccc2nc(-c3cccnc3)c(C(=O)N[C@H]3N=C(c4ccccc4)c4cccc(F)c4NC3=O)n2n1 [Example 96, N-[(3S)-9-fluoro-2-oxo-5-phenyl-1,3-dihydro-1,4-benzodiazepin-3-yl]-6-methyl-2-pyridin-3-ylimidazo[1,2-b]pyridazine-3-carboxamide] | 91 | > 25000 | 3.78 | 42.8 | 0.468
10 | Cc1ccc2nc(-c3ccncc3F)c(C(=O)N[C@H]3N=C(c4ccccc4)c4cccc(F)c4NC3=O)n2n1 [Example 100, N-[(3S)-9-fluoro-2-oxo-5-phenyl-1,3-dihydro-1,4-benzodiazepin-3-yl]-2-(3-fluoropyridin-4-yl)-6-methylimidazo[1,2-b]pyridazine-3-carboxamide] | 47 | > 25000 | 1.37 | 15.1 | 0.457
11 | CCNc1ccc2nc(-c3ccccc3F)c(C(=O)N[C@H]3N=C(c4ccccc4)c4cccc(F)c4NC3=O)n2n1 [Example 106, 6-(Ethylamino)-N-[(3S)-9-fluoro-2-oxo-5-phenyl-1,3-dihydro-1,4-benzodiazepin-3-yl]-2-(2-fluorophenyl)imidazo[1,2-b]pyridazine-3-carboxamide] | 66 | > 25000 | 4.8 | 0.792 | 1.46
12 | O=C(N[C@H]1N=C(c2ccccc2)c2cccc(F)c2NC1=O)c1c(-c2ccccc2)nc2cccnn12 [Example 107, N-[(3S)-9-fluoro-2-oxo-5-phenyl-1,3-dihydro-1,4-benzodiazepin-3-yl]-2-phenylimidazo[1,2-b]pyridazine-3-carboxamide] | 37 | > 25000 | 3.12 | 4.97 | 1.46
13 | CN1CC(Oc2ccc3nc(-c4ccccc4F)c(C(=O)N[C@H]4N=C(c5ccccc5)c5cccc(F)c5NC4=O)n3n2)C1 [Example 108, N-[(3S)-9-Fluoro-2-oxo-5-phenyl-1,3-dihydro-1,4-benzodiazepin-3-yl]-2-(2-fluorophenyl)-6-(1-methylazetidin-3-yl)oxyimidazo[1,2-b]pyridazine-3-carboxamide] | 84 | 21900 | 2.88 | 1.3 | 1.14
14 | CN1CC(Oc2ccc3nc(-c4ccccc4)c(C(=O)N[C@H]4N=C(c5ccccc5)c5cccc(F)c5NC4=O)n3n2)C1 [Example 109, N-[(3S)-9-Fluoro-2-oxo-5-phenyl-1,3-dihydro-1,4-benzodiazepin-3-yl]-6-(1-methylazetidin-3-yl)oxy-2-phenylimidazo[1,2-b]pyridazine-3-carboxamide] | 96 | > 16800 | 4.33 | 1.3 | 1.15
15 | COc1ccc2nc(-c3ccccc3)c(C(=O)N[C@H]3N=C(c4ccccc4)c4cccc(F)c4NC3=O)n2n1 [Example 113, N-[(3S)-9-fluoro-2-oxo-5-phenyl-1,3-dihydro-1,4-benzodiazepin-3-yl]-6-methoxy-2-phenylimidazo[1,2-b]pyridazine-3-carboxamide] | 41 | > 25000 | 4.02 | 8.63 | 1.46
16 | [2H]C([2H])([2H])Oc1ccc2nc(-c3ccccc3)c(C(=O)N[C@H]3N=C(c4ccccc4)c4cccc(F)c4NC3=O)n2n1 [Example 114, N-[(3S)-9-fluoro-2-oxo-5-phenyl-1,3-dihydro-1,4-benzodiazepin-3-yl]-2-phenyl-6-(trideuteriomethoxy)imidazo[1,2-b]pyridazine-3-carboxamide] | 39 | > 25000 | 5.5 | 4.1 | 2.03
17 | COc1ccc2nc(-c3ccccc3F)c(C(=O)N[C@H]3N=C(c4ccccc4)c4cccc(F)c4NC3=O)n2n1 [Example 115, N-[(3S)-9-fluoro-2-oxo-5-phenyl-1,3-dihydro-1,4-benzodiazepin-3-yl]-2-(2-fluorophenyl)-6-methoxyimidazo[1,2-b]pyridazine-3-carboxamide] | 34 | > 25000 | 7.78 | 2.5 | 2.42
18 | O=C(N[C@H]1N=C(c2ccccc2)c2cccc(F)c2NC1=O)c1c(-c2ccccc2F)nc2ccc(Cl)nn12 [Example 116, 6-Chloro-N-[(3S)-9-fluoro-2-oxo-5-phenyl-1,3-dihydro-1,4-benzodiazepin-3-yl]-2-(2-fluorophenyl)imidazo[1,2-b]pyridazine-3-carboxamide] | 33 | > 25000 | > 2.33 | > 2.33 | 0.957
